Reference: patent US12295992B2, “Use of ALDH1A and agonist, catalyst and inhibitor thereof” (SHANGHAI INSTITUTES FOR BIOLOGICAL SCIENCES, CHINESE …, priority 2017, dated 2025)

Tests used:
wild-type C57BL/6 mice [1] = assay: Three-chamber social experiment in wild-type mice; type: in vivo; settings: DSF 0.3 mg/g
Experimental: Four-week-aged mice were given a low dose (0.1 mg/g) or a high dose (0.3 mg/g) of DSF (Sigma, dissolved in olive oil) every two days for 6 weeks. The control group was only given the solvent olive oil (Aladdin). The body weight of the mice was weighed weekly. After 6 weeks of gastric administration, the test of mouse behavior was started. The brains of the control and DSF mice were dissected and taken. After freezing with liquid nitrogen, the brain tissue was homogenized, and ATRA was quantified by the HPLC-MS/MS method as described hereinafter. A three-chamber social experiment was performed according to previously reported procedures (Sztainberg et al., 2015). Briefly, a transparent acrylic box for social experiment was divided into three chambers of uniform size with removable gates mounted on the partition board. An inverted iron mesh cup was placed in each of the left and right chambers. Two days before the experiment, C57BL/6 mice, which were from different family and whose age was matched with the test mice, were placed in two cups as strange mice for 1 hour each day for accommodation. Test mice were randomized into groups and accommodated to the test chamber for 1 hour before the test started. Each test mouse was placed in the center chamber for 10 minutes for self-exploration, and the chamber door was closed. In the first stage, a strange mouse was randomly placed in the left or right cup (avoiding positional bias), and the inanimate article was placed in the cup on the other side. […] In the second stage, the test mice were kept in the chamber of the strange mouse for 5 minutes, and then another strange mouse was placed in the cup in which the article was previously placed.

wild-type C57BL/6 mice [2] = assay: Elevated cross maze experiment in wild-type mice; type: in vivo; settings: DSF 0.1 or 0.3 mg/g vs solvent
Experimental: (§1) Four-week-aged mice were given a low dose (0.1 mg/g) or a high dose (0.3 mg/g) of DSF (Sigma, dissolved in olive oil) every two days for 6 weeks. The control group was only given the solvent olive oil (Aladdin). The body weight of the mice was weighed weekly. After 6 weeks of gastric administration, the test of mouse behavior was started. The brains of the control and DSF mice were dissected and taken. After freezing with liquid nitrogen, the brain tissue was homogenized, and ATRA was quantified by the HPLC-MS/MS method as described hereinafter.
Mice were placed in a closed arm of an elevated cross maze (Med Associates) and recording was started for 5 minutes. Image recording was performed using a camera hanged in the air, and the number of times that the mouse entered into the open arm and the closed arm within 5 minutes was recorded and analyzed using ANY-maze software (Stoelting).

wild-type C57BL/6 mice [3] = assay: Self-grooming experiment in wild-type mice; type: in vivo; settings: six weeks, within 10 minutes
Experimental: as §1, with “hereinafter. The mice used in the self-grooming experiment were placed in a cage box filled with a filler having a thickness of about 0.5-1 cm for 10 minutes in advance for accommodation. Then, within 10 minutes, the time of self-grooming in mice was recorded by a double-blind experimenter through a stopwatch.” for “hereinafter.”

wild-type C57BL/6 mice [4] = assay: Open field experiment in wild-type mice; type: in vivo; settings: DSF 0.1 or 0.3 mg/g vs solvent
Experimental: as §1
Mice were randomized into groups and placed in an open field instrument (Med Associates) for 30 minutes. The Ethovision automatic recording software (Noldus) was used to record the time spent by the mouse in the central region (⅓ to ⅔ of length on each side of the region) and to calculate the ratio of the distance walked in the central region to the total distance.

[5] = tested on: ATRA synthesis in the mouse brain; assay: HPLC-MS/MS quantification of ATRA in mouse brain tissue; type: in vivo, mice; settings: six weeks
Experimental: Four-week-aged mice were given a low dose (0.1 mg/g) or a high dose (0.3 mg/g) of DSF (Sigma, dissolved in olive oil) every two days for 6 weeks. The control group was only given the solvent olive oil (Aladdin). The body weight of the mice was weighed weekly. After 6 weeks of gastric administration, the test of mouse behavior was started. The brains of the control and DSF mice were dissected and taken. After freezing with liquid nitrogen, the brain tissue was homogenized, and ATRA was quantified by the HPLC-MS/MS method as described hereinafter. Sample preparation, retinoid extraction and subsequent HPLC-MS/MS analysis were performed according to the previously reported procedures (Kane et al., 2010). The frozen brains of mice were homogenized on ice with 2 mL of 0.9% saline under red light condition. 13-cis-retinoic acid-d5 (20 ng/mL, TRC) was added into the tissue homogenate as an internal reference. […] The samples were analyzed by HPLC on a 2.1×100 mm Supelcosil ABZ+PLUS column (3 urn, Sigma) column. […] The instrumentation was an AB Sciex 4000 QTRAP LC-MS/MS system, and the ATRA component was quantified in the APCI cation mode, and the ATRA content in each sample was corrected using a standard ATRA curve.

wild-type C57BL/6 mice [6] = assay: Rotating rod experiment in wild-type mice; type: in vivo; settings: DSF 0.1 or 0.3 mg/g
Experimental: as §1
After mice were randomized into groups, the motor coordination ability of the mice was recorded using a Rotamex rotarod instrument (Columnbus Instruments). On the same day, the test mice were tested 3 times, each experiment was lasted 5 minutes, and the rotating rod was accelerated from 4 revolutions […]. There were at least 30 minutes between two experiments. The time before the test mice dropped off the rod was automatically recorded by an infrared detection system, and the results of the last test were finally compared.

[7] = Body weight of mice during DSF administration; type: in vivo; settings: DSF 0.1 or 0.3 mg/g, weighed weekly, six weeks
Experimental: as §1

- number of times entering the open arm as a percentage of all arm entry (wild-type C57BL/6 mice [2]): no significant difference
- distance of the movement in the open field (wild-type C57BL/6 mice [4]): no difference
- time staying in the middle area of the open field (wild-type C57BL/6 mice [4]): no difference
- sport ability (rotating rod) (wild-type C57BL/6 mice [6]): did not affect the sport ability
SMILES: CCN(CC)C(=S)SSC(=S)N(CC)CC [DSF, disulfiram]
- increase of time spent in the chamber of familiar social mouse vs solvent group (wild-type C57BL/6 mice [1]): 50%
- reduction of time staying in the chamber of strange social mouse vs solvent group (wild-type C57BL/6 mice [1]): 30%
- time of self-grooming (wild-type C57BL/6 mice [3]; DSF 0.1 mg/g): 30 s
- time of self-grooming (wild-type C57BL/6 mice [3]; DSF 0.3 mg/g): 42 s
- decrease of ATRA level in brain tissue vs solvent group ([5]; DSF 0.1 mg/g oral every other day): 30%
- decrease of ATRA level in brain tissue vs solvent group ([5]; DSF 0.3 mg/g oral every other day): 60%
- body weight between the groups [7]: no significant difference
